Test results reported in patent publication US10717716B2, “1,3,4-oxadiazole derivative compounds as histone deacetylase 6 inhibitor, and the pharmaceutical composition comprising the same” (Chong Kun Dang Pharmaceutical Corp., priority 2015, dated 2020).

Target: T1, human recombinant HDAC6 (Homo sapiens, UniProt Q9UBN7)
T1 construct: purchased Calbiochem 382180
T1 sequence (Q9UBN7 1-1215): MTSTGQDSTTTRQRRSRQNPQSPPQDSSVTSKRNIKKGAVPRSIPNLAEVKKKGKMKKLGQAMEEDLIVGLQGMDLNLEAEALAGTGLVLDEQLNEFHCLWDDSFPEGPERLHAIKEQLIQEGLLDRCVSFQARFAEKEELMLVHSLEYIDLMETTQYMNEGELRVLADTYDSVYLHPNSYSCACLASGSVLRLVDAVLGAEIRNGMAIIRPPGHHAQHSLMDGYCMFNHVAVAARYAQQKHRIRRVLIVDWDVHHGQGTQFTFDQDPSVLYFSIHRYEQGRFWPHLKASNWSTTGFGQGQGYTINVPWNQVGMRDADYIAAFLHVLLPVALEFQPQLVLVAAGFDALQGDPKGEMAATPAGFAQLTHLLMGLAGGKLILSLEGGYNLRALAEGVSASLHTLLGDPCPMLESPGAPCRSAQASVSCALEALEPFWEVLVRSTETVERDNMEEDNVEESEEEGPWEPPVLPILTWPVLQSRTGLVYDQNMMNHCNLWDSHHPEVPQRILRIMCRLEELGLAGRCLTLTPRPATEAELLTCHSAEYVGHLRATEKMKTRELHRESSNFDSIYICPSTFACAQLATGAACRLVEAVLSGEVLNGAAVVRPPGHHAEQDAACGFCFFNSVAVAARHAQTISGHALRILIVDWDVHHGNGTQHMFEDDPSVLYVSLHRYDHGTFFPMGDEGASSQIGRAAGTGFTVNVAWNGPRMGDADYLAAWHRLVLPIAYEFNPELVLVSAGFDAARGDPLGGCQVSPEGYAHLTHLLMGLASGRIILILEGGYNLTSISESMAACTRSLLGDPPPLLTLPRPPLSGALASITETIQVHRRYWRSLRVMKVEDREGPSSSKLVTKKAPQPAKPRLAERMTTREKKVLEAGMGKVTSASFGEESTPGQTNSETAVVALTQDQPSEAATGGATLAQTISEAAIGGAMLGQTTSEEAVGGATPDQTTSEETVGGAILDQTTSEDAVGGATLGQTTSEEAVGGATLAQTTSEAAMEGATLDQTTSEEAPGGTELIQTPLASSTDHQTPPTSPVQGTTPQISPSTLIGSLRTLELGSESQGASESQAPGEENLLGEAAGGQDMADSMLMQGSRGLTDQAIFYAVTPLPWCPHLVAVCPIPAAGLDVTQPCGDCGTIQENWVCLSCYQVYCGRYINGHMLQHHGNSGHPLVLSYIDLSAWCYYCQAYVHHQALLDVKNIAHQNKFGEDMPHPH
Assay: HDAC6 enzyme activity inhibition assay (HDAC Fluorimetric Drug Discovery Kit)
Assay type: biochemical
Conditions: for HDAC6 selectivity (fold): HDAC6 over HDAC1; for IC50: human recombinant HDAC6, same protocol as HDAC1, read-out: HDAC6
Procedure, shortened: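 Fluorimetric deacetylase assay: 5-fold serial compound dilutions, 0.3 μg recombinant human enzyme (HDAC1 or HDAC6, same protocol), 10 μM Fluor de Lys-SIRT1 substrate, 60 min at 30 °C. Signal developed 30 min, measured at 360/460 nm; IC50 values derived.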

| Compound | HDAC6 selectivity (fold) | IC50 [nM] |
| --- | --- | --- |
| CCN(CCNC(=O)N(Cc1ccc(-c2nnc(C(F)F)o2)cc1F)c1ccccc1)Cc1ccccc1 [Compound 22006, 3-(2-(Benzyl(ethyl)amino)ethyl)-1-(4-(5-(difluoromethyl)-1,3,4-oxadiazol-2-yl)-2-fluorobenzyl)-1-phenylurea] | 37 | 270 |
| C[C@@H]1CN(C(=O)N(Cc2ccc(-c3nnc(C(F)(F)F)o3)cc2)c2ccccc2)C[C@H](C)N1S(C)(=O)=O [Compound 21388, (3R,5S)-3,5-Dimethyl-4-(methylsulfonyl)-N-phenyl-N-(4-(5-(trifluoromethyl)-1,3,4-oxadiazol-2-yl)benzyl)piperazine-1-carboxamide] | 42 | 240 |
| CCN(Cc1ccc(-c2nnc(C(F)(F)F)o2)cc1)C(=O)N1CCOCC1 [Compound 21399, N-ethyl-N-(4-(5-(trifluoromethyl)-1,3,4-oxadiazol-2-yl)benzyl)morpholine-4-carboxamide] | 13 | 780 |
| CCN1CCN(CCCCOc2ccc(N(Cc3ccc(-c4nnc(C(F)F)o4)cc3F)C(=O)N3CCS(=O)(=O)CC3)cc2)CC1 [Compound 21973, N-(4-(5-(difluoromethyl)-1,3,4-oxadiazol-2-yl)-2-fluorobenzyl)-N-(4-(4-(4-ethylpiperazin-1-yl)butoxy)phenyl)thiomorpholine-4-carboxamide 1,1-dioxide] | 39 | 256 |
| O=C(N1CC=C(c2ccccc2)CC1)N(Cc1ccc(-c2nnc(C(F)(F)F)o2)cc1)c1ccccc1 [Compound 21359, N,4-diphenyl-N-(4-(5-(trifluoromethyl)-1,3,4-oxadiazol-2-yl)benzyl)-3,6-dihydropyridine-1(2H)-carboxamide] | 4 | 2280 |
| CN1CCN(C(=O)N(Cc2ccc(-c3nnc(C(F)F)o3)cc2F)c2cccc(-c3ccncc3)c2)CC1 [Compound 21535, N-(4-(5-(difluoromethyl)-1,3,4-oxadiazol-2-yl)-2-fluorobenzyl)-4-methyl-N-(3-(pyridin-4-yl)phenyl)piperazine-1-carboxamide] | 227 | 44 |
| CS(=O)(=O)c1ccc(N(Cc2ccc(-c3nnc(C(F)F)o3)cc2)C(=O)N2CCOCC2)cc1 [Compound 21444, N-(4-(5-(difluoromethyl)-1,3,4-oxadiazol-2-yl)benzyl)-N-(4-(methylsulfonyl)phenyl)morpholine-4-carboxamide] | 57 | 175 |
| COc1ccccc1N(Cc1ccc(-c2nnc(C(F)F)o2)cc1F)C(=O)N1CCN(C)CC1 [Compound 21472, N-(4-(5-(difluoromethyl)-1,3,4-oxadiazol-2-yl)-2-fluorobenzyl)-N-(2-methoxyphenyl)-4-methylpiperazine-1-carboxamide] | 217 | 46 |
| CC(=O)N1CCCN(C(=O)N(Cc2ccc(-c3nnc(C(F)(F)F)o3)cc2)c2ccccc2)CC1 [Compound 21422, 4-Acetyl-N-phenyl-N-(4-(5-(trifluoromethyl)-1,3,4-oxadiazol-2-yl)benzyl)-1,4-diazepane-1-carboxamide] | 95 | 105 |
| O=C(N1CCS(=O)(=O)CC1)N(Cc1ccc(-c2nnc(C(F)F)o2)cc1)c1ccc(-c2cccnc2)cc1 [Compound 21490, N-(4-(5-(difluoromethyl)-1,3,4-oxadiazol-2-yl)benzyl)-N-(4-(pyridin-3-yl)phenyl)thiomorpholine-4-carboxamide 1,1-dioxide] | 270 | 37 |
| O=C(NCCN1CC(F)(F)C1)N(Cc1ccc(-c2nnc(C(F)F)o2)cc1F)c1ccccc1 [Compound 21983, 3-(2-(3,3-Difluoroazetidin-1-yl)ethyl)-1-(4-(5-(difluoromethyl)-1,3,4-oxadiazol-2-yl)-2-fluorobenzyl)-1-phenylurea] | 63 | 160 |
| O=C(N1CCS(=O)(=O)CC1)N(Cc1ccc(-c2nnc(C(F)F)o2)cc1F)c1ccc(OC(F)(F)F)cc1 [Compound 21514, N-(4-(5-(difluoromethyl)-1,3,4-oxadiazol-2-yl)-2-fluorobenzyl)-N-(4-(trifluoromethoxy)phenyl)thiomorpholine-4-carboxamide 1,1-dioxide] | 286 | 35 |
| CCN1CCN(C(=O)N(Cc2ccc(-c3nnc(C(F)F)o3)cn2)c2ccccc2)CC1 [Compound 21624, N-((5-(5-(difluoromethyl)-1,3,4-oxadiazol-2-yl)pyridin-2-yl)methyl)-4-ethyl-N-phenylpiperazine-1-carboxamide] | 347 | 29 |
| O=C(N1CCC2(CC1)CNC2)N(Cc1ccc(-c2nnc(C(F)(F)F)o2)cc1)c1ccccc1 [Compound 21417, N-phenyl-N-(4-(5-(trifluoromethyl)-1,3,4-oxadiazol-2-yl)benzyl)-2,7-diazaspiro[3.5]nonane-7-carboxamide] | 143 | 70 |
| O=C(N1CCS(=O)(=O)CC1)N(Cc1ccc(-c2nnc(C(F)(F)F)o2)cc1)c1cccc(F)c1 [Compound 21392, N-(3-fluorophenyl)-N-(4-(5-(trifluoromethyl)-1,3,4-oxadiazol-2-yl)benzyl)thiomorpholine-4-carboxamide 1,1-dioxide] | 65 | 153 |
| O=C(N1CCS(=O)(=O)CC1)N(Cc1ccc(-c2nnc(C(F)F)o2)cc1F)c1ccc(CN2CCN(CC(F)(F)F)CC2)cc1 [Compound 21902, N-(4-(5-(difluoromethyl)-1,3,4-oxadiazol-2-yl)-2-fluorobenzyl)-N-(4-((4-(2,2,2-trifluoroethyl)piperazin-1-yl)methyl)phenyl)thiomorpholine-4-carboxamide 1,1-dioxide] | 25 | 398 |
| CN1CCN(CCNC(=O)N(Cc2ccc(-c3nnc(C(F)F)o3)cc2F)c2ccccc2)CC1 [Compound 21958, 1-(4-(5-(Difluoromethyl)-1,3,4-oxadiazol-2-yl)-2-fluorobenzyl)-3-(2-(4-methylpiperazin-1-yl)ethyl)-1-phenylurea] | 115 | 87 |
| CCN1CCN(C(=O)N(Cc2ccc(-c3nnc(C(F)F)o3)cn2)c2ccc(Cl)cc2)CC1 [Compound 21882, N-(4-Chlorophenyl)-N-((5-(5-(difluoromethyl)-1,3,4-oxadiazol-2-yl)pyridin-2-yl)methyl)-4-ethylpiperazine-1-carboxamide] | 251 | 40 |
| O=C(N1CCOCC1)N(Cc1ccc(-c2nnc(C(F)F)o2)cc1F)c1ccccc1 [Compound 21337, N-(4-(5-(difluoromethyl)-1,3,4-oxadiazol-2-yl)-2-fluorobenzyl)-N-phenylmorpholine-4-carboxamide] | 357 | 28 |
| CCCN(Cc1ccc(-c2nnc(C(F)(F)F)o2)cc1)C(=O)N1CCOCC1 [Compound 21400, N-propyl-N-(4-(5-(trifluoromethyl)-1,3,4-oxadiazol-2-yl)benzyl)morpholine-4-carboxamide] | 17 | 582 |
| CC1CCN(CCNC(=O)N(Cc2ccc(-c3nnc(C(F)F)o3)cc2F)c2ccccc2)CC1 [Compound 21989, 1-(4-(5-(Difluoromethyl)-1,3,4-oxadiazol-2-yl)-2-fluorobenzyl)-3-(2-(4-methylpiperidin-1-yl)ethyl)-1-phenylurea] | 80 | 124 |
| C[C@@H]1CN(CCNC(=O)N(Cc2ccc(-c3nnc(C(F)F)o3)cc2F)c2ccccc2)C[C@H](C)N1 [Compound 21992, 1-(4-(5-(Difluoromethyl)-1,3,4-oxadiazol-2-yl)-2-fluorobenzyl)-3-(2-((3S,5R)-3,5-dimethylpiperazin-1-yl)ethyl)-1-phenylurea] | 133 | 75 |
